Patent US11603387B2, “SOCS mimetics for the treatment of diseases” (UNIVERSITY OF FLORIDA RESEARCH FOUNDATION, INC., priority 2014, dated 2023)

How the values were obtained:
IFNγ = IFNγ expression by qPCR and ELISA under Th17 inducing conditions; assay type: cell-based, mouse; conditions: SOCS1-KIR peptide (20 μM)
Experimental: (§1) FIGS. 5A-5D. […] (FIGS. 5A and 5B) SOCS1^+/+ or SOCS1^+/− CD4^+CD25^− T cells were stimulated with αCD3 antibodies alone or with αCD3+SOCS1-KIR peptide (20 μM) for 72 h. (FIG. 5A) CD25 expressing cells were assessed by flow cytometry. Results are representative of 4 independent experiments. (FIG. 5B) Proliferation was assessed by CFSE labeling and flow cytometry, cell counts, and ^3[H] thymidine incorporation. n=4. (FIGS. 5C and 5D) SOCS1^+/+ or SOCS1^+/− CD4^+CD25^− T cells were placed under Th17 inducing conditions in the absence or presence of SOCS1-KIR peptide (20 μM) (FIG. 5C) IFNγ expression, relative to β-actin., was assessed by qPCR (left) and ELISA (right) (n=4). (FIG. 5D) pSTAT1 and STAT1 protein expressions were assessed by western blotting. Results are representative of 4 independent experiments. Statistical comparisons were performed using Mann-Whitney U test. (*P<0.05). iTh17=Th17 inducing conditions, WT=SOCS1^+/+, and HT=SOCS1^+/−.
CD4^+CD25^− T lymphocytes (1×10^5/well) were cultured in triplicate at 37° C. (5% CO2) in RPMI 1640 (Cellgro 10-040-CV) containing 10% FBS (INVITROGEN™ GIBCO®) 1% antibiotic/antimycotic (Herndon, Va.), and 50 μM β-ME (MP Biomedicals, Solon, Ohio). […] Cells were incubated for 72 hours and assessed for Treg differentiation by ICS for Foxp3. […] Cells were collected after 5 days and assessed for activation and Th17 differentiation. […]

STAT1 = assay: pSTAT1/STAT1 western blotting under Th17 inducing conditions; assay type: cell-based, mouse; conditions: SOCS1+/− CD4+ T cells, SOCS1-KIR peptide (20 μM)
Experimental: as §1
MACS purified CD4^+CD25^− T cells were stimulated with anti-CD3 Ab (10 μg/ml), anti-CD3 (10 μg/ml) and anti-CD28 (1.5 μg/ml) Abs, or Th17 inducing conditions in the presence or absence of SOCS1-KIR peptide as previously described. […] Equal quantities of protein were loaded and separated in 4%-12% SDS-PAGE gel (Biorad). […]

DTHFRTFRSHSDYRRI (SOCS1-KIR peptide) [SOCS1 mimetic peptide corresponding to the KIR region of SOCS1]
Reduction in IFNγ protein production (IFNγ; ELISA): 2 fold
Reduction in IFNγ mRNA expression (IFNγ; qPCR relative to β-actin): 2 fold
STAT1 activation (phosphorylation) (STAT1): drastically reduced the enhanced STAT1 activation
